Laboratory results from patent US20220324865A1 (Bayer Aktiengesellschaft, priority 2018, published 2022).
pIC50: −log10 of the molar value.

Biological target: T1, human EP3 receptor (Homo sapiens, UniProt P43115)
T1 construct: expressed in transfected cells; host or cells: CHO K1 (Chinese Hamster Ovary), stably co-transfected with Galpha16 and mitochondrial clytin
T1 sequence (P43115 1-390): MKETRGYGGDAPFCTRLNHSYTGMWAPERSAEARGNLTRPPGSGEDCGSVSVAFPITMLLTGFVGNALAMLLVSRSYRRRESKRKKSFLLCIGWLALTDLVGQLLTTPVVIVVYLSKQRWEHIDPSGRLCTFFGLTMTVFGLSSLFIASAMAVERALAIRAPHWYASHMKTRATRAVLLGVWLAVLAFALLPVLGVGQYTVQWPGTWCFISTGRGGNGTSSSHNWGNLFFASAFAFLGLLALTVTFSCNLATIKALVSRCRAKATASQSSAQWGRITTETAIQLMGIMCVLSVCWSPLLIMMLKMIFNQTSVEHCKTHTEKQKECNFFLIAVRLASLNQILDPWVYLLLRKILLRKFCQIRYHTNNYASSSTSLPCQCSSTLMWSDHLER
Assay: Cellular in vitro assay for determining EP3 receptor activity (human EP3 cell line, sulprostone-stimulated calcium luminescence)
Format: cell-based
Conditions: CHO cells expressing human EP3 and mitochondrial Clytin; antagonist mode, sulprostone at EC50; read-out: EP3 CHO mtCLY ANTAG IC50
Procedure, shortened: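 CHO K1 cells stably expressing human EP3 with Gα16 and mitochondrial Clytin, loaded overnight with coelenterazine. Compounds added 10 min before sulprostone at its EC50; antagonism read immediately as reduced calcium-driven luminescence, quadruplicate points.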

pIC50 | SMILES
8.15 | CCn1ccc(C(C)NC(=O)c2cc3c(=O)[nH]c(-c4ccc5ccccc5c4)cn3n2)n1 (stereo not drawn) [Example 2-54, N-[1-(1-Ethyl-1H-pyrazol-3-yl)ethyl]-6-(2-naphthyl)-4-oxo-4,5-dihydropyrazolo[1,5-a]pyrazine-2-carboxamide]
9.32 | COc1cc(-c2cn3nc(C(=O)N[C@H](CCO)c4ccc(F)cc4)c(C4CC4)c3c(=O)[nH]2)ccc1Cl [6-482]
8.04 | Cc1ccc(-c2cn3nc(C(=O)NC(C)c4ccc(F)cc4)cc3c(=O)[nH]2)cc1C(F)(F)F (stereo not drawn) [6-25]
8.54 | CCn1cc(Cl)c(CNC(=O)c2nn3c(C)c(-c4ccc5ccccc5c4)[nH]c(=O)c3c2C)n1 [Example 3-8, N-[(4-Chloro-1-ethyl-1H-pyrazol-3-yl)methyl]-3,7-dimethyl-6-(naphthalen-2-yl)-4-oxo-4,5-dihydropyrazolo[1,5-a]pyrazine-2-carboxamide]
9.11 | CCn1cc(CNC(=O)c2nn3cc(-c4cnc5cccc(C)c5c4)[nH]c(=O)c3c2C(C)C)c(C)n1 [Example 4-36, N-[(1-Ethyl-3-methyl-1H-pyrazol-4-yl)methyl]-6-(5-methylquinolin-3-yl)-4-oxo-3-(propan-2-yl)-4,5-dihydropyrazolo[1,5-a]pyrazine-2-carboxamide]
8.40 | Cc1c(C(=O)NC(c2ccc(F)cc2)C(C)C)nn2c(C)c(-c3ccc4ccccc4c3)[nH]c(=O)c12 (stereo not drawn) [Example 3-41, N-[1-(4-Fluorophenyl)-2-methylpropyl]-3,7-dimethyl-6-(2-naphthyl)-4-oxo-5H-pyrazolo[1,5-a]pyrazine-2-carboxamide]
8.56 | Cc1cccc2ncc(-c3cn4nc(C(=O)NCc5ccccn5)c(C(C)C)c4c(=O)[nH]3)cc12 [Example 4-26, 6-(5-Methylquinolin-3-yl)-4-oxo-3-(propan-2-yl)-N-[(pyridin-2-yl)methyl]-4,5-dihydropyrazolo[1,5-a]pyrazine-2-carboxamide]
8.44 | COc1ccc(C2(NC(=O)c3nn4cc(-c5ccc6c(c5)OCCO6)[nH]c(=O)c4c3C3CC3)CN(C)C2)cc1 [6-464]
8.68 | Cc1c(C(=O)NC(c2cccc(F)c2)C(F)F)nn2c(C)c(-c3ccc4ccccc4c3)[nH]c(=O)c12 (stereo not drawn) [Example 3-72, N-[2,2-Difluoro-1-(3-fluorophenyl)ethyl]-3,7-dimethyl-6-(2-naphthyl)-4-oxo-5H-pyrazolo[1,5-a]pyrazine-2-carboxamide]
8.15 | Cc1c(C(=O)NCc2cc[nH]n2)nn2c(C)c(-c3ccc4ccccc4c3)[nH]c(=O)c12 [Example 3-5, 3,7-Dimethyl-6-(naphthalen-2-yl)-4-oxo-N-[(1H-pyrazol-3-yl)methyl]-4,5-dihydropyrazolo[1,5-a]pyrazine-2-carboxamide]
9.16 | Cc1ccc(-c2cn3nc(C(=O)NCCC(O)C(F)(F)F)c(C4CC4)c3c(=O)[nH]2)cc1F (single isomer, unassigned) [6-367]
8.15 | O=C(N[C@H](CN1CC(F)C1)C1CC1)c1nn2cc(-c3ccc4ccccc4c3)[nH]c(=O)c2c1C(F)(F)F [6-513]
8.43 | Cc1ccc(-c2cn3nc(C(=O)N[C@@H](C)CO)c(C4CCC4)c3c(=O)[nH]2)cc1F [6-576]
8.06 | COc1ccc([C@@H](C)NC(=O)c2cc3c(=O)[nH]c(-c4ccc5c(c4F)OCCO5)c(F)n3n2)cn1 [Example 1-111, 7-Fluoro-6-(5-fluoro-2,3-dihydro-1,4-benzodioxin-6-yl)-N-[(1R)-1-(6-methoxypyridin-3-yl)ethyl]-4-oxo-4,5-dihydropyrazolo[1,5-a]pyrazine-2-carboxamide]
8.69 | Cc1ccc(-c2cn3nc(C(=O)NC4(c5ccc(F)cc5)CC4)cc3c(=O)[nH]2)cc1C [6-24]
8.06 | Cn1cc(CNC(=O)c2nn3cc(-c4ccc5ccccc5c4)[nH]c(=O)c3c2C#N)cn1 [Example 3-45, 3-Cyano-N-[(1-methyl-1H-pyrazol-4-yl)methyl]-6-(naphthalen-2-yl)-4-oxo-4,5-dihydropyrazolo[1,5-a]pyrazine-2-carboxamide]
8.12 | CC(C)(O)[C@@H](NC(=O)c1cc2c(=O)[nH]c(-c3ccc(Cl)c(Cl)c3)cn2n1)c1ccc(F)cc1 [6-636]
8.11 | COc1ccc(CNC(=O)c2cc3c(=O)[nH]c(-c4ccc(C)c(Cl)c4)c(C)n3n2)cc1OC [Example 1-129, 6-(3-Chloro-4-methylphenyl)-N-(3,4-dimethoxybenzyl)-7-methyl-4-oxo-4,5-dihydropyrazolo-[1,5-a]pyrazine-2-carboxamide]
8.39 | Cc1cccc2ncc(-c3cn4nc(C(=O)NC(C)c5ccc(Cl)c(Cl)c5)c(C(C)C)c4c(=O)[nH]3)cc12 (stereo not drawn) [Example 4-52, N-[1-(3,4-Dichlorophenyl)ethyl]-3-isopropyl-6-(5-methyl-3-quinolyl)-4-oxo-5H-pyrazolo[1,5-a]pyrazine-2-carboxamide]
8.13 | CC(C)(O)[C@@H](NC(=O)c1nn2cc(-c3cc(F)c(Cl)cc3F)[nH]c(=O)c2c1C1CC1)c1ccc(F)cc1 [6-584]

pIC50 | SMILES
8.48 | COc1ccc(C2(NC(=O)c3nn4cc(-c5ccc(C)c(Cl)c5)[nH]c(=O)c4c3C3CC3)CN(C)C2)cc1 [6-257]
8.90 | CC(C)C(NC(=O)c1nn2cc(-c3ccc4ccccc4c3)[nH]c(=O)c2c1C#N)c1ccc(F)cc1 (stereo not drawn) [Example 3-59, 3-Cyano-N-[1-(4-fluorophenyl)-2-methylpropyl]-6-(2-naphthyl)-4-oxo-5H-pyrazolo[1,5-a]pyrazine-2-carboxamide]
8.96 | CC(C)c1c(C(=O)N[C@H](CCO)c2ccc(F)cc2)nn2cc(-c3cccc(Cl)c3)[nH]c(=O)c12 [6-682]
9.24 | Cc1ccc(-c2cn3nc(C(=O)N[C@@H](c4ccc(F)cc4)C(C)(C)O)c(C(F)(F)C(F)(F)F)c3c(=O)[nH]2)cc1Cl [6-488]
8.80 | C[C@@H](NC(=O)c1cc2c(=O)[nH]c(-c3ccc4ccccc4c3)cn2n1)c1ccc(C(F)(F)F)cc1 [Example 1-1, 6-(Naphthalen-2-yl)-4-oxo-N-{(1R)-1-[4-(trifluoromethyl)phenyl]ethyl}-4,5-dihydropyrazolo[1,5-a]-pyrazine-2-carboxamide]
8.55 | COC[C@@H](NC(=O)c1nn2cc(-c3cnc4cccc(C)c4c3)[nH]c(=O)c2c1C(C)C)c1ccccc1 [Example 1-87, N-[(1S)-2-Methoxy-1-phenylethyl]-6-(5-methylquinolin-3-yl)-4-oxo-3-(propan-2-yl)-4,5-dihydropyrazolo[1,5-a]pyrazine-2-carboxamide]
8.53 | Cc1cc(-c2cn3nc(C(=O)N[C@@H](C)C(C)C)c(C4CC4)c3c(=O)[nH]2)ccc1Cl [6-302]
8.59 | CCn1cc(CNC(=O)c2nn3cc(-c4ccc5ccccc5c4)[nH]c(=O)c3c2C#N)c(C)n1 [Example 3-44, 3-Cyano-N-[(1-ethyl-3-methyl-1H-pyrazol-4-yl)methyl]-6-(naphthalen-2-yl)-4-oxo-4,5-dihydropyrazolo[1,5-a]pyrazine-2-carboxamide]
8.89 | O=C(NC1(c2ccc(F)cc2)CN(CC(F)F)C1)c1nn2cc(-c3ccc(Cl)c(F)c3)[nH]c(=O)c2c1C1CC1 [6-108]
8.48 | CC(NC(=O)c1cc2c(=O)[nH]c(-c3ccc4ccccc4c3)cn2n1)c1ccc(O)cc1 (single isomer, unassigned) [6-543]
8.63 | Cc1cccc2ncc(-c3cn4nc(C(=O)NC5(c6ccccc6)CCCC5)c(C(C)C)c4c(=O)[nH]3)cc12 [Example 4-73, 6-(5-Methylquinolin-3-yl)-4-oxo-N-(1-phenylcyclopentyl)-3-(propan-2-yl)-4,5-dihydropyrazolo[1,5-a]pyrazine-2-carboxamide]
9.17 | Cc1ccc(-c2cn3nc(C(=O)N[C@@H](c4ccc(F)cc4)C(F)(F)CO)c(C(F)(F)C(F)(F)F)c3c(=O)[nH]2)cc1Cl [6-487]
8.58 | COC[C@@H](NC(=O)c1cc2c(=O)[nH]c(-c3ccc4ccccc4c3)cn2n1)c1ccccc1 [6-51]
8.94 | CC[C@@H](C)NC(=O)c1nn2cc(-c3ccc(C)c(C)c3)[nH]c(=O)c2c1C1CC1 [Example 1-142, N-[(2R)-Butan-2-yl]-3-cyclopropyl-6-(3,4-dimethylphenyl)-4-oxo-4,5-dihydropyrazolo[1,5-a]-pyrazine-2-carboxamide]
8.32 | COc1ccc(C(C)NC(=O)c2nn3c(C)c(-c4ccc5ccccc5c4)[nH]c(=O)c3c2C)cc1F (stereo not drawn) [Example 3-74, N-[1-(3-Fluoro-4-methoxyphenyl)ethyl]-3,7-dimethyl-6-(2-naphthyl)-4-oxo-5H-pyrazolo[1,5-a]pyrazine-2-carboxamide]
8.66 | Cc1nn(C(C)CNC(=O)c2cc3c(=O)[nH]c(-c4ccc5ccccc5c4)cn3n2)cc1Cl (stereo not drawn) [Example 2-18, N-[2-(4-Chlor-3-methyl-1H-pyrazol-1-yl)propyl]-6-(2-naphthyl)-4-oxo-4,5-dihydropyrazolo[1,5-a]pyrazine-2-carboxamide]
8.87 | Cc1ccc(-c2cn3nc(C(=O)N[C@H](C)C(C)C)c(C(F)(F)F)c3c(=O)[nH]2)cc1Cl [6-189]
8.38 | O=C(NCc1ccccc1)c1cc2c(=O)[nH]c(-c3ccc4ccccc4c3)cn2n1 [6-16]
8.14 | Cc1c(C(=O)NC(C)c2ccc(Cl)c(Cl)c2)nn2c(C)c(-c3ccc4ccccc4c3)[nH]c(=O)c12 (stereo not drawn) [Example 3-16, N-[1-(3,4-Dichlorophenyl)ethyl]-3,7-dimethyl-6-(2-naphthyl)-4-oxo-5H-pyrazolo[1,5-a]pyrazine-2-carboxamide]
